# Experimental data: PMC2362731, “Phase I study of Carzelesin (U-80,244) given (4-weekly) by intravenous bolus schedule” (British Journal of Cancer, 1999)
# How the values were obtained:
# [1] = Ex vivo conversion in blood samples; type: in vitro ADME, human; conditions: if the sample is not immediately cooled in ice-water
# Text: (§1) Carzelesin (U-80,244, Figure 1A) is a cyclopropylpyrroloindole (CPI) prodrug analogue of CC-1065. […] CPI drugs are a class of compounds with unique DNA interactive properties. These agents fit into the minor groove region of DNA, and the CPI function in the molecule mediates a covalent binding to the N3 position of adenine in A-T rich regions, thus forming DNA adducts in a sequence selective fashion (Hurley et al, 1984; Reynolds et al, 1985). Three new CPIs have now been developed. […] Bizelesin differs from the classical CPI drugs in that it contains two chloromethyl functions, which are both converted (via intramolecular rearrangements) to the CPI alkyl- ating species that interact with DNA. Consequently, this agent is capable of forming DNA interstrand cross-links (Lee et al, 1991). […] Therefore, efforts were directed to modu- late the alkylation rate by the preparation of CPI prodrugs that would require chemical or enzymatic conversion. The activation of Carzelesin is a two-step reaction with hydrolysis of the phenyl- urethane substituent to form the intermediate compound U-76,073, followed by ring closure to form the active product U-76,074 (Figure 1B). […] The concentration of U-76,074 (active metabolite) extended above the lower limit of quantitation (1 ng ml-1) for short periods of time and only at the higher dose levels. […]
# [2] = system: tumour cells cultured in vitro; design: method as in Li et al, 1992; conditions: compared with adozelesin; ref Li et al, 1992; cited from earlier work
# mouse = conditions: equivalent of mouse LD10; ref EORTC-NDDO, 1992; cited from earlier work
# solid tumours = test: Antitumour activity (WHO response criteria); type: in vivo, human; conditions: 51 patients, eight not evaluable
# Text: as §1
smiles,measurement,setting,value
CCN(CC)c1ccc2cc(C(=O)Nc3ccc4[nH]c(C(=O)N5C[C@@H](CCl)c6c5cc(OC(=O)Nc5ccccc5)c5[nH]cc(C)c65)cc4c3)oc2c1 [Carzelesin],stability in blood sample ex vivo,[1],"readily converted to U-76,074 ex vivo"
same,potency against tumour cells cultured in vitro,[2],less potent than adozelesin
same,MELD10,mouse,840 g m-2
same,patients with progressive disease as best overall response,solid tumours,Thirty-four patients
same,patients with stable disease as best overall response,solid tumours,nine patients
